Experimental findings from patent US9604981B2, “IP receptor agonist heterocyclic compounds” (Novartis AG, priority 2013, dated 2017) are described below.

The test addresses T1, IP receptor (Homo sapiens, UniProt P43119).
T1 construct: expressed in transfected cells; host or cells: CHO cells (CHO-IP)
The test is described as follows: cAMP accumulation in CHO cells stably expressing the IP receptor (AlphaScreen). The conditions noted are these: 1 hour at room temperature. In kind it is cell-based. The method, then:
Activity of compounds at the IP receptor (IP receptor) is assessed by measuring cAMP accumulation in CHO cells stably expressing the IP receptor (CHO-IP) using the PerkinElmer AlphaScreen assay. This technology measures the endogenous production of cAMP, in a non-radioactive luminescence proximity homogenous assay. A biological reaction occurs between streptavidin coated donor beads, biotinylated cAMP and anti-cAMP acceptor beads, bringing the donor and acceptor beads close enough together so that upon excitation a fluorescence signal is produced. On production of endogenous cAMP, competition between the biotinylated cAMP and cellular-derived cAMP causes a reduction in the fluorescent signal. The reduction in signal is proportional to the amount of cAMP being produced, thus it is possible to quantify the amount of cAMP being produced on stimulation with agonist.
Test and reference compounds are prepared at 100× [final] in 100% DMSO, and diluted 1:3 using a Biomek Fx (Beckman Coulter). This is followed by an intermediate dilution to give 5× [final] in assay buffer (HBSS containing 5 mM HEPES, 0.1% (w/v) BSA). […] The assay plate is then incubated at room temperature in the dark, for 60 minutes with gentle shaking, and read on the Envision plate reader (Perkin Elmer). […]
(In general: Changes in cAMP serve as a functional read-out for many G protein-coupled receptors.)

SMILES strings stand for the structures.

T1 sequence (P43119 whole entry): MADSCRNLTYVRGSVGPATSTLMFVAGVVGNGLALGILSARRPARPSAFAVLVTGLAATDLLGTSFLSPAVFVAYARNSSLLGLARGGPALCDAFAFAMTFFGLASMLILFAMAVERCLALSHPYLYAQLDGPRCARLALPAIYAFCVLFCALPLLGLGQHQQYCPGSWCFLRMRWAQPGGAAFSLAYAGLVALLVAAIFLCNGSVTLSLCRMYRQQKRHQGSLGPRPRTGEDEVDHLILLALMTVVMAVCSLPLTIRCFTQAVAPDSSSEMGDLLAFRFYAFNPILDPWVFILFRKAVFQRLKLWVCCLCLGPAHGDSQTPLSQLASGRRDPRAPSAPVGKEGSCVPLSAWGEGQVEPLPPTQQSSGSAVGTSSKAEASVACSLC

As a reminder, the EC50 is the concentration at which the effect is half-maximal. Lower therefore signals a more potent agent. As to `Cc1ccc(-c2cc3c(nc2-c2ccc(C)cc2)CCCN3CCCCCCC(=O)O)cc1` [Example 1, 7-(6,7-Di-p-tolyl-3,4-dihydro-1,5-naphthyridin-1(2H)-yl)heptanoic acid], the EC50 was 0.455 nM.
